Legend:
[1] = system: collagen-induced aggregation in rabbit platelets; assay: Inhibition of collagen-induced platelet aggregation in rabbit platelet rich plasma; type: cell-based; settings: Oryctolagus cuniculus, read-out: Inhibition rate of collagen-induced aggregation; for inhibition at 100 µM (stock): Concentration of the test compound solution 10^-4 mole; for inhibition at 10 µM (stock): Concentration of the test compound solution 10^-5 mole
Protocol: (§1) The platelet aggregation inhibitory effect was measured by using a Platelet Aggregation Tracer Model PAT-6M (manufactured by Nikoh Bio-Science Co., Ltd.) by a method according to Kimura, et al., [IGAKU-NO-AYUMI (Progress in Medicine), Vol. 114, No. 9, pp. 718-727, Aug. 30, 1980, and Nature, pp. 927-929, 1962].
(§2) The blood sample used for the test was a 1:9 (by volume) mixture of "3.8%-CITRATE"® (a registered trademark for 3.8%-sodium citrate, manufactured by Green Cross Corp.) and whole blood collected from rabbits. Said sample was subjected to 10-minute centrifugal separation at 1,000 r.p.m. (200xG) to obtain a platelet rich plasma (PRP). The PRP thus obtained was separated, and the remaining blood sample was further subjected to 15-minute centrifugal separation at 3,000 r.p.m. (2,000xG) to obtain a platelet poor plasma (PPP).
(§3) The number of platelets in the PRP was counted by the Brecher-Clonkite Method, and the PRP was diluted with the PPP to prepare a PRP sample with a platelet concentration of 600,000/microliter to prepare for an adenosine diphosphate (ADP)-induced aggregation test, and a collagen-induced aggregation test. 0.2 Milliliter of the PRP sample was added to 2 microliters of a solution of a test compound of predetermined concentration and this mixture was placed in a 37° C. thermostat for one minute. Then 20 microliters of an ADP or collagen solution was added to the mixture. In this test, the ADP solution was prepared by adjustment to a concentration of 7.5×10^-5 M by using Auren-Beronal buffer solution (pH 7.35). Further, the collagen solution was prepared by adjustment to a concentration of 200 micrograms/ml by using collagen reagent of "Holm"® (manufactured by Hormon-Chemie Munchen, GmbH.) which was diluted wih a physiological saline solution.
(§4) The transmittance of the resultant test mixture was determined and the change of transmittance was recorded by using the aggregometer at a stirrer speed of 1,100 r.p.m.
(§5) The platelet aggregation inhibitory effect of the test compound was measured in terms of inhibition rate (%) with respect to the aggregation rate of the controls. The aggregation rate was calculated from the following formula.
(§6) Aggregation rate=[(c-a)/(b-a)]×100
(§7) The percent inhibition is calculated from the following formula.
(§8) Inhibition rate (%)=[(A-B)/A]×100
(§9) The inhibitory effect of the test compounds on collagen-induced aggregation in rabbit platelets is shown in Table 1, similarly such effect on ADP-induced aggregation in rabbit platelets is shown in Table 2.

[2] = system: ADP-induced aggregation in rabbit platelets; assay: Inhibition of ADP-induced platelet aggregation in rabbit platelet rich plasma; type: cell-based; settings: Oryctolagus cuniculus, read-out: Inhibition rate of ADP-induced aggregation; for inhibition at 100 µM (stock): Concentration of the test compound solution 10^-4 mole; for inhibition at 10 µM (stock): Concentration of the test compound solution 10^-5 mole
Protocol: as §1, §2, §3, §4, §5, §6, §7, §8, §9

[3] = Change of blood pressure, intravenous administration, anesthetized dog; type: in vivo; parameters: unit not given here; settings: femoral artery
Protocol: The change of blood flow in coronary artery and the change of blood pressure were measured by a method according to Yakura et al., [Japan Journal of Pharmacology, Vol. 57, pages 380-391 (1961)] and according to Taira, et al. [Clin. Exp. Pharmacol. Physiol., Vol. 6, pages 301-316, (1976)].
An adult bastard dog of either sex weighing 8-13 kg was anesthetized with sodium pentobarbital at the rate of 30 mg/kg by intraveneous administration, then the dog was fixed in supination and was theracotomized under a condition of forced breathing. After another intraveneous administration of sodium heparin at the rate of 500 U/kg, 100 U/kg per hour, the dog was subjected to the following experiments.
(2) Intraveneous administration
Morawitz's cannula was cannulated to the coronary sinus venosus through the auricula dextra cordis, and the blood in vein was circulated to the right carotid. The blood flow was measured by an electromagnetic blood flow meter equipped with a blood flow observation probe in the extracorporeal circulation path of the vein. The systolic force was measured by a systolometer (pick-up) placed at the left ventricle of heart, the blood pressure was measured from the femoral artery, and the heart rate was measured from the pulse. A compound to be tested was administered through the cannula being cannulated in femoral vein. The increased amount of the blood flow in coronary artery after the administration of the test compound is shown in Table 4, also the change of blood pressure is shown in Table 5.

| SMILES | inhibition at 100 µM (stock) [1] [%] | inhibition at 100 µM (stock) [2] [%] | Change of blood pressure ([3]; 3 micrograms/kg) | Change of blood pressure ([3]; 10 micrograms/kg) | Change of blood pressure ([3]; 30 micrograms/kg) | Change of blood pressure ([3]; 100 micrograms/kg) | inhibition at 10 µM (stock) [1] [%] | inhibition at 10 µM (stock) [2] [%] | Change of blood pressure ([3]; 300 micrograms/kg) |
| --- | --- | --- | --- | --- | --- | --- | --- | --- | --- |
| C=CCOc1ccc(OCCCCOC(=O)C2=C(C)NC(C)=C(C(=O)OC)C2c2cccc([N+](=O)[O-])c2)c2c1NC(=O)CC2 (stereo not drawn) [Compound 19, 5-{4-[2,6-Dimethyl-5-methoxycarbonyl-4-(3-nitrophenyl)-1,4-dihydropyridin-3-carboxy]-butoxy}-8-alloyloxy-3,4-dihydrocarbostyril] | 17 | 17 | -22 | -34 | -44 | -55 | – | – | – |
| COC(=O)C1=C(C)NC(C)=C(C(=O)OCCOc2ccc3[nH]c(=O)ccc3c2)C1c1ccccc1[N+](=O)[O-] (stereo not drawn) [Compound 20, 6-{2-[2,6-Dimethyl-5-methoxycarbonyl-4-(2-nitrophenyl)-1,4-dihydropyridin-3-carboxy]-ethoxy}carbostyril] | 100 | 100 | – | – | -4 | -8 | 100 | 65 | -32 |
| COC(=O)C1=C(C)NC(C)=C(C(=O)OCCOc2ccc3c(c2)CCC(=O)N3)C1c1ccccc1[N+](=O)[O-] (stereo not drawn) [Compound 21, 6-{2-[2,6-Dimethyl-5-methoxycarbonyl-4-(2-nitrophenyl)-1,4-dihydropyridin-3-carboxy]-ethoxy}-3,4-dihydrocarbostyril] | 100 | 58 | – | -7 | -12 | -28 | 99 | 27 | -42 |
| COC(=O)C1=C(C)NC(C)=C(C(=O)OCCCOc2cccc3[nH]c(=O)ccc23)C1c1cccc([N+](=O)[O-])c1 (stereo not drawn) [Compound 22, 5-{3-[2,6-Dimethyl-5-methoxycarbonyl-4-(3-nitrophenyl)-1,4-dihydropyridin-3-carboxy]-propoxy}carbostyril] | 100 | 62 | – | -2 | -8 | -18 | 21 | 13 | -36 |
| COC(=O)C1=C(C)NC(C)=C(C(=O)OCCCCOc2ccc3[nH]c(=O)ccc3c2)C1c1ccccc1C(F)(F)F (stereo not drawn) [Compound 24, 6-{4-[2,6-Dimethyl-5-methoxycarbonyl-4-(2-trifluoromethylphenyl)-1,4-dihydropyridin-3-carboxy]butoxy}carbostyril] | 100 | 100 | – | -6 | -18 | -30 | 30 | 62 | -44 |
| COC(=O)C1=C(C)NC(C)=C(C(=O)OCCCCOc2ccc3c(c2)CCC(=O)N3)C1c1ccccc1SC (stereo not drawn) [Compound 26, 6-{4-[2,6-Dimethyl-5-methoxycarbonyl-4-(2-methylthiophenyl)-1,4-dihydropyridin-3-carboxy]butoxy}-3,4-dihydrocarbostyril] | 100 | 87 | – | -6 | -10 | -21 | 19 | 22 | -42 |
| COC(=O)C1=C(C)NC(C)=C(C(=O)OCCCCOc2ccc3c(c2)CCC(=O)N3)C1c1ccccc1Cl (stereo not drawn) [Compound 27, 6-{4-[2,6-Dimethyl-5-methoxycarbonyl-4-(2-chlorophenyl)-1,4-dihydropyridin-3-carboxy]-butoxy}-3,4-dihydrocarbostyril] | 61 | 42 | -4 | -10 | -27 | -52 | – | – | – |

Reference: patent US4564619A, “Carbostyril derivative” (Otsuka Pharmaceutical Co., Ltd., priority 1982, dated 1986)
